# From patent US12290651B2, “Devices and methods for the treatment of body surface disorders” (Verrica Pharmaceuticals Inc., priority 2017, dated 2025)
# Several values for one entry are separate records, joined by “and”; a condition that tells them apart may be missing. Equal entries are not always repeated.
# Assay: Pharmacokinetic results from Phase II clinical trial: systemic exposure (plasma cantharidin) after topical application (Example 3)
# Type: in vivo, human
# Procedure: This example describes pharmacokinetic results from a Phase II clinical trial for the treatment of skin lesion resulting from Molluscum contagiosum. Patients received administrations of the cantharidin composition in Table 2 to Molluscum contagiosum lesions every 21 days for a maximum of 4 sessions or until complete clearance. Blood samples for systemic exposure evaluation were collected on Day 1, prior to the drug application, and 2 (±30 minutes), 6 (±1 hour) and 24 (±3 hours) hours post-application. The average age of the subjects was 7±3.5 years. The average body weight of the subjects was 58±34.6 lb. The average number of lesions per subject was 43.7±24.2.
smiles,measurement,setting,value
C[C@@]12C(=O)OC(=O)[C@]1(C)[C@H]1CC[C@@H]2O1 [cantharidin],plasma concentration of cantharidin,"all subjects, all times sampled (2, 6, 24 hours post-application)",less than 3.3 ng/ml
same,Exposure (plasma concentration of cantharidin),"one line per subject, topical cantharidin composition of Table 2 on molluscum lesions, blood at 2, 6 and 24 hours post-application on Day 1, LLOQ 2.5 ng/ml",<2.5 ng/ml (16×) and 3.3 ng/ml
same,subjects with plasma concentration of cantharidin above the lower limit of quantification (2.5 ng/ml),seventeen subjects,Only one of the seventeen subjects
same,plasma concentration of cantharidin,"subjects as young as 2 years old, having over 100 lesions, having genital lesions, with as many as 2.26 lesions per lb: below LLOQ",< 2.5 ng/mL
